# Results reported in patent publication US20140371254A1, “NOVEL TREATMENT OF GEFITINIB-RESISTANT NON-SMALL-CELL LUNG CANCER” (Macau University of Science and Technology, priority 2013, published 2014).
# Key:
# [1] = system: H2228 (EML4-ALK fusion gene); settings: method not stated; cited from earlier work
# JNK, p38 = assay: Western blot of phosphorylation of JNK and p38; format: cell-based, human; settings: 5 μM NAC and 1.25 μM sanguinarine
# Description: (§1) Cells were lysed in RIPA lysis buffer with protease and phosphatase inhibitors added for total whole cell protein extraction. The concentration of the total protein extract was determined by Bio-Rad DCTM protein assay kit (Bio-Rad). Then samples were loaded and separated onto a 10% SDS-PAGE gel and then the separated proteins were transferred to a Nitrocellulose (NC) membrane. Membranes were blocked with 5% milk without fat in TBST for 1 hour at room temperature. Primary antibodies (1:1000 dilutions for Cell Signaling antibodies; 1:500 dilutions for Santa Cruz antibodies) were added and incubated overnight at 4° C. On the other day, membrane was washed by TBST for three times (5 mins/wash), while secondary fluorescent antibody (1:10000 dilutions) was added to membrane and incubated at room temperature for 1 hr. Actin was used as loading control and for normalization. The signal intensity of the membranes was detected by Odessy (LI-COR).
# ROS intensity was increased with the increase of sanguinarine treatment time. Sanguinarine-induced apoptosis in H1975 cells, in which the cells were pre-treated with 5 μM NAC and a ROS generation inhibitor, was also studied. […] Also, P-EGFR 1045 as shown in FIG. 6 is a tyrosine(Y) phosphorylation site of EGFR at amino acid position 1045 (Y1045) and phosphorylation of this site will lead to activation of EGFR degradation after cbl docking to this site
# [2] = system: H1975 (EGFR^L858R+T790M) cells; assay: Apoptosis by Annexin V/PI staining with flow cytometry; format: cell-based, human
# Description: Annexin V/PI staining is used to detect early and late stages of apoptosis. According to the manufacturer's protocol (BD Pharmingen), 5×10^5 cells of the treated and control groups were harvested, washed, and double-stained with Annexin V/PI for 15 min at room temperature in dark. Then apoptotic cells were quantitatively counted by a flow cytometer (BD FACSAria III). Early stage of apoptotic cells were stained with Annexin V-positive and PI-negative, while the late stage of apoptotic cells were stained with Annexin V-positive and PI-positive.
# Example 6 further studies if the sanguinarine-induced apoptosis in H1975 (EGFR^L858R+T790M) is in caspases-dependent manner H1975 cells were treated with 1.25 μM sanguinarine and 1.25 μM sanguinarine together with 50 μM pan-caspase inhibitor for 24 hrs.
# EGFR = assay: Western blot analysis of the protein level of EGFR; format: cell-based, human; settings: 5 μM NAC and 1.25 μM sanguinarine
# Description: as §1
# In Example 3, the protein level of EGFR after sanguinarine treatment with difference dosage and duration was analyzed.
smiles,measurement,setting,value
COc1cc2ncnc(Nc3ccc(F)c(Cl)c3)c2cc1OCCCN1CCOCC1 [Gefitinib],Gefitinib Sensitivity,[1],Resistant
CC(=O)N[C@@H](CS)C(=O)O [NAC],"phosphorylation of JNK, p38 induced by sanguinarine","JNK, p38",block
same,apoptosis induced by sanguinarine after NAC pre-treatment,"[2]; H1975, pre-treated with 5 μM NAC, sanguinarine",completely blocked
same,EGFR degradation induced by sanguinarine,EGFR,block
C[n+]1cc2c3c(ccc2c2ccc4cc5c(cc4c21)OCO5)OCO3 [sanguinarine],more cell debris than control,"[2]; H1975, 1.25 μM, 24 hrs",20%
same,increase in early stage of apoptosis compared with the control group,"[2]; H1975, 1.25 μM, 24 hrs, early stage (Q3)",7.2 fold
